Data reported in the supplement of paper PMC11451515.

Test system: SEM cells
Assay: cell viability relative to DMSO control; higher = less cytotoxic
Settings: 48 h
In short: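 Viability is a per-plate percentage relative to DMSO wells, with cell-free wells as background. CellTiter-Glo One luminescence was read after 48 h at 37°C on 1536-well plates (5 μl) of NOMO1 or SEM (500 cells/well) or P12-Ichikawa (1000 cells/well) leukemia cells. The cells had been adapted for at least four passages in each medium and pin-dosed with library compounds in DMSO from 47 μM to 0.79 nM in 11 threefold steps.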

[1] = HPLM + 10% dialyzed FBS, 0.000781 µM
[2] = HPLM + 10% dialyzed FBS, 0.00234 µM
[3] = HPLM + 10% dialyzed FBS, 0.00702 µM
[4] = HPLM + 10% dialyzed FBS, 0.0211 µM
[5] = HPLM + 10% dialyzed FBS, 0.0632 µM
[6] = HPLM + 10% dialyzed FBS, 0.19 µM
[7] = HPLM + 10% dialyzed FBS, 0.569 µM
[8] = HPLM + 10% dialyzed FBS, 1.71 µM
[9] = HPLM + 10% dialyzed FBS, 5.12 µM
[10] = HPLM + 10% dialyzed FBS, 15.4 µM
[11] = HPLM + 10% dialyzed FBS, 46.1 µM
[12] = RPMI 5 mM glucose + 10% FBS, 0.000781 µM
[13] = RPMI 5 mM glucose + 10% FBS, 0.00234 µM
[14] = RPMI 5 mM glucose + 10% FBS, 0.00702 µM
[15] = RPMI 5 mM glucose + 10% FBS, 0.0211 µM
[16] = RPMI 5 mM glucose + 10% FBS, 0.0632 µM
[17] = RPMI 5 mM glucose + 10% FBS, 0.19 µM
[18] = RPMI 5 mM glucose + 10% FBS, 0.569 µM
[19] = RPMI 5 mM glucose + 10% FBS, 1.71 µM
[20] = RPMI 5 mM glucose + 10% FBS, 5.12 µM
[21] = RPMI 5 mM glucose + 10% FBS, 15.4 µM
[22] = RPMI 5 mM glucose + 10% FBS, 46.1 µM
[23] = RPMI 5 mM glucose + 10% dialyzed FBS, 0.000781 µM
[24] = RPMI 5 mM glucose + 10% dialyzed FBS, 0.00234 µM
[25] = RPMI 5 mM glucose + 10% dialyzed FBS, 0.00702 µM
[26] = RPMI 5 mM glucose + 10% dialyzed FBS, 0.0211 µM
[27] = RPMI 5 mM glucose + 10% dialyzed FBS, 0.0632 µM
[28] = RPMI 5 mM glucose + 10% dialyzed FBS, 0.19 µM
[29] = RPMI 5 mM glucose + 10% dialyzed FBS, 0.569 µM
[30] = RPMI 5 mM glucose + 10% dialyzed FBS, 1.71 µM
[31] = RPMI 5 mM glucose + 10% dialyzed FBS, 5.12 µM
[32] = RPMI 5 mM glucose + 10% dialyzed FBS, 15.4 µM
[33] = RPMI 5 mM glucose + 10% dialyzed FBS, 46.1 µM

Row | Structure (SMILES) | cell viability [1] [%] | cell viability [2] [%] | cell viability [3] [%] | cell viability [4] [%] | cell viability [5] [%] | cell viability [6] [%] | cell viability [7] [%] | cell viability [8] [%] | cell viability [9] [%] | cell viability [10] [%] | cell viability [11] [%] | cell viability [12] [%] | cell viability [13] [%] | cell viability [14] [%] | cell viability [15] [%] | cell viability [16] [%] | cell viability [17] [%] | cell viability [18] [%] | cell viability [19] [%] | cell viability [20] [%] | cell viability [21] [%] | cell viability [22] [%] | cell viability [23] [%] | cell viability [24] [%] | cell viability [25] [%] | cell viability [26] [%] | cell viability [27] [%] | cell viability [28] [%] | cell viability [29] [%] | cell viability [30] [%] | cell viability [31] [%] | cell viability [32] [%] | cell viability [33] [%]
1 | CCOC(=O)[C@H](CCc1ccccc1)N[C@@H](C)C(=O)N1CCC[C@H]1C(=O)O | 107 | 110 | 102 | 97.3 | 119 | 123 | 107 | 115 | 113 | 112 | 113 | 106 | 112 | 104 | 109 | 106 | 112 | 96.6 | 94.5 | 113 | 120 | 94.8 | 119 | 105 | 108 | 109 | 111 | 103 | 94.4 | 101 | 103 | 99.2 | 98.5
2 | Cc1ncc(OC[C@@]2(c3cccc(F)c3)C[C@H]2C(=O)Nc2ccc(F)cn2)c(C)n1 | 75.3 | 84.5 | 97.6 | 96 | 95.3 | 91.7 | 105 | 96 | 98.3 | 98.7 | 78.3 | 113 | 111 | 102 | 104 | 103 | 133 | 136 | 51.1 | 97.3 | 88.4 | 104 | 85.3 | 107 | 98.1 | 90.8 | 100 | 104 | 108 | 118 | 122 | 108 | 82.6
3 | OC[C@H]1O[C@H]([C@@H](F)[C@@H]1O)N2\C=C/C(=O)NC2=O | 106 | 42.5 | 111 | 109 | 108 | 117 | 122 | 112 | 90.8 | 109 | 106 | 93.2 | 113 | 110 | 101 | 90.1 | 105 | 112 | 97 | 93.5 | 91.2 | 95.9 | 105 | 48.6 | 99.8 | 91.6 | 96.4 | 102 | 99.1 | 90.7 | 74 | 100 | 87.5
4 | CCN(CC)C(=S)SSC(=S)N(CC)CC | 99.8 | 99.4 | 115 | 108 | 102 | 85.6 | 55.2 | 40.4 | 4.49 | 3.73 | 2.19 | 74.9 | 74.3 | 78.7 | 79.2 | 73.5 | 55.6 | 48.6 | 32.9 | 2.66 | 1.26 | 0.625 | 87.8 | 97.9 | 97.2 | 103 | 99.3 | 76.6 | 44.3 | 33.5 | 3.67 | 2.09 | 1.26
5 | CC(C)(C)C(=O)OCOP(=O)(COCCn1cnc2c(N)ncnc21)OCOC(=O)C(C)(C)C | 84.1 | 112 | 104 | 101 | 71.9 | 51 | 68.1 | 38.1 | 25.6 | 14.1 | 7.08 | 108 | 101 | 108 | 88 | 61.7 | 42.7 | 51.4 | 26.5 | 13 | 7.59 | 2.97 | 86.6 | 95.4 | 95.3 | 85.1 | 48.5 | 39.8 | 42.2 | 23.2 | 13 | 10.9 | 3.51
6 | C[C@H]1C[C@H]2[C@@H]3CCC4=CC(=O)C=C[C@]4(C)[C@@]3(F)[C@@H](O)C[C@]2(C)[C@@]1(O)C(=O)CO | 86.1 | 105 | 101 | 92.8 | 99.5 | 78.5 | 68.9 | 27.5 | 67.1 | 31.3 | 66 | 101 | 110 | 106 | 105 | 91.6 | 67.3 | 66.7 | 26.4 | 69.6 | 22.8 | 64.4 | 108 | 140 | 114 | 93.6 | 87.1 | 72.6 | 72.3 | 24 | 53.2 | 23.9 | 74
7 | NC(=O)c1ncn([C@@H]2O[C@H](CO)[C@@H](O)[C@H]2O)n1 | 96.4 | 110 | 116 | 119 | 104 | 106 | 101 | 106 | 117 | 117 | 80.4 | 105 | 115 | 118 | 115 | 112 | 115 | 95.2 | 95.9 | 103 | 123 | 76.9 | 106 | 118 | 121 | 110 | 113 | 108 | 104 | 118 | 111 | 142 | 85.7
8 | O=C1\C=C/C[C@@H]2[C@H]3CCCN4CCC[C@@H](CN12)[C@@H]34 | 109 | 113 | 111 | 112 | 99.6 | 105 | 117 | 112 | 93.4 | 102 | 101 | 90.8 | 77.1 | 103 | 108 | 101 | 59.3 | 99.5 | 107 | 87.1 | 88.6 | 95.7 | 89.1 | 108 | 101 | 115 | 108 | 81.8 | 106 | 118 | 105 | 98.9 | 92.2
9 | CC(=O)NC(CS)C(=O)O (centres undefined) | 71.5 | 71.7 | 75.7 | 63.5 | 82.3 | 62.5 | 66.7 | 84.1 | 90 | 36.1 | 62.3 | 93.5 | 93.7 | 87.8 | 99.1 | 99.8 | 90.8 | 95.4 | 116 | 114 | 27.7 | 29.2 | 76.7 | 57.8 | 86.2 | 65.5 | 88.4 | 64 | 83.6 | 78.7 | 108 | 30.9 | 54.9
10 | Cn1c(Nc2ccc(C(F)(F)F)cc2)nc2cc(Oc3ccnc(-c4nc(C(F)(F)F)c[nH]4)c3)ccc21 | 97.1 | 114 | 116 | 96.8 | 127 | 115 | 109 | 96.2 | 59.6 | 55.1 | 24.8 | 111 | 109 | 124 | 94.8 | 136 | 117 | 122 | 98.2 | 53.4 | 44.2 | 12.7 | 108 | 118 | 134 | 102 | 128 | 130 | 116 | 112 | 55.3 | 48.6 | 18.1
11 | COc1cc2c(Oc3ccc(NC(=O)C4(C(=O)Nc5ccc(F)cc5)CC4)cc3F)ccnc2cc1OCCCN1CCOCC1 | 45.9 | 38.6 | 35.5 | 35.9 | 33.8 | 31.9 | 32.3 | 16.1 | 19.9 | 17.1 | 3.11 | 59.2 | 45.2 | 42.3 | 43.6 | 37.4 | 33.6 | 42.5 | 13.5 | 10.9 | 7.49 | 3.41 | 41.9 | 28.5 | 34.8 | 28.2 | 23.9 | 25.3 | 25.7 | 9.12 | 11.7 | 8.88 | 2.51
12 | CC(=O)Nc1ccc([C@H](C)C(=O)Nc2ncc(C(C)C)s2)cc1 | 98.9 | 102 | 106 | 95.9 | 104 | 105 | 105 | 95.1 | 61.9 | 8.42 | 4.85 | 107 | 112 | 132 | 121 | 117 | 108 | 123 | 114 | 76 | 8.73 | 4.33 | 95.6 | 79.1 | 97.4 | 97.2 | 109 | 97.2 | 110 | 99.2 | 64.6 | 8.82 | 4.36
13 | ClC1=CC(=CC=C1)N2CCN(CCCN3\N=C4\C=C/C=C\N4C3=O)CC2 | 79.3 | 107 | 107 | 112 | 121 | 130 | 127 | 131 | 140 | 131 | 145 | 117 | 126 | 123 | 138 | 140 | 138 | 146 | 157 | 150 | 165 | 127 |  |  |  |  |  |  |  |  |  |  | 
14 | CCOc1cc(N)c(Cl)cc1C(=O)NCC1CN(Cc2ccc(F)cc2)CCO1 (centres undefined) | 85.4 | 110 | 104 | 100 | 109 | 112 | 128 | 114 | 118 | 119 | 132 | 99.8 | 113 | 107 | 116 | 114 | 114 | 95.5 | 115 | 109 | 94.7 | 90.3 | 113 | 110 | 100 | 109 | 119 | 122 | 112 | 115 | 105 | 104 | 92.5
15 | CCCCNc1cc(C(=O)O)cc([S+](N)(=O)[O-])c1Oc1ccccc1 | 80.3 | 97.7 | 100 | 101 | 103 | 95.8 | 99.9 | 107 | 115 | 116 | 118 | 111 | 110 | 117 | 114 | 111 | 109 | 107 | 112 | 116 | 141 | 111 | 108 | 110 | 109 | 113 | 115 | 126 | 107 | 123 | 135 | 120 | 128
